The values below come from the NIST ThermoML archive (doi:10.1016/j.fluid.2014.05.036).

The conditions of data set [1]: Crystal; DTA.
The nature of data set [2]: Molar enthalpy of transition or fusion. The settings on record: Crystal; DSC.

± gives the expanded uncertainty stated by the source.

Regarding `CCOC(=O)c1ccc(O)cc1` [ethyl 4-hydroxybenzoate], in data set [1], the Normal melting temperature stood at 115.50 ± 0.5 °C. The “Molar enthalpy of transition or fusion” value in data set [2] amounted to 6.16 ± 0.179 kcal/mol.

On to `CCCOC(=O)c1ccc(O)cc1` [propyl 4-hydroxybenzoate], for which, in data set [1], the Normal melting temperature was found to be 96.40 ± 0.5 °C. Moreover, in data set [2], the “Molar enthalpy of transition or fusion” value came to 6.34 ± 0.182 kcal/mol.
